Results taken from publication PMC6579712 (Xenobiotica; the fate of foreign compounds in biological …, 2018).
“Also recorded” adds a separate entry of the source. Like-named read-outs stand apart in the source and are kept apart here.

Legend:
[1] = in vivo; cited from earlier work
[2] = cited from earlier work
[3] = ARV concentrations in brain tissue and plasma by LC-MS/MS, BLT mice; conditions: BLT vs hu-HSC-RAG
RT-SHIV [4] = experiment: 90% inhibitory quotient; parameters: IQ90 in NHP brain tissue, one individual animal: unit not given beside the values; conditions: for IQ90 in NHP brain tissue, one individual animal: the single animal above 1
[5] = in vivo
[6] = ARV concentrations in brain tissue and plasma by LC-MS/MS, hu-HSC-RAG mice; conditions: p=0.29
in vitro = in vitro ADME, rhesus macaques; conditions: rhesus macaque, frontal cortex brain tissue homogenate
RT-SHIV [7] = experiment: IC90 against the RT-SHIV strain of virus; assay type: cell-based
[8] = no reference given; cited from earlier work
[9] = in vivo; cited from earlier work; remark: listed apart in the source
[10] = ARV concentrations in brain tissue, CSF and plasma by LC-MS/MS, NHPs
HIV = conditions: target value used for colocalization; cited from earlier work

C[C@H](Cn1cnc2c(N)ncnc21)OCP(=O)(O)O [TFV, tenofovir]
median brain tissue concentration, human post-mortem [1]: 80 ng/g
protein binding in plasma ([2]; no reference given): < 10%
fold higher brain tissue penetration in BLT mice compared to hu-HSC-RAG mice [3]: 3 fold

Cc1nnc(C(=O)NC(C)(C)c2nc(C(=O)NCc3ccc(F)cc3)c(O)c(=O)n2C)o1 [RAL, raltegravir]
IQ90 from total brain tissue concentrations (RT-SHIV [4]; six of the remaining seven animals): < 1
IQ90 from unbound brain tissue concentration (RT-SHIV [4]; the one animal where unbound concentration could be measured): 0.07
IQ90 in NHP brain tissue, one individual animal (RT-SHIV [4]): 1.1
Kp at 1 day after the last of ten days of dosing (both, hu-HSC-Rag and BLT (mice), mouse (humanized) and rhesus macaque, in vivo): 0.11 to 0.12

CC(Cn1cnc2c(N)ncnc21)OCP(=O)(O)OP(=O)(O)OP(=O)(O)O (stereo in doubt) [TFV-dp, tenofovir diphosphate]
TFV-dp concentration range in all brain tissue samples [5]: 851 to 179,000 fmol/g of tissue
IQ90 in NHP brain tissue, one individual animal (RT-SHIV [4]): 1.1
fold higher median TFV-dp brain concentration in hu-HSC-RAG vs BLT mice [6]: 10 fold

COC(=O)N[C@H](C(=O)N[C@@H](Cc1ccccc1)[C@@H](O)CN(Cc1ccc(-c2ccccn2)cc1)NC(=O)[C@@H](NC(=O)OC)C(C)(C)C)C(C)(C)C [ATZ, atazanavir]
fraction unbound at 18 h (in vitro): 0.76
fold higher IC90 against RT-SHIV than against clinical HIV-1 isolates (RT-SHIV [7]): 1,000 fold
BCS class [8]: class I or class II
CSF concentrations [9]: 5 to 21 ng/mL

Nc1nc(=O)n([C@@H]2CS[C@H](CO)O2)cc1F [FTC, emtricitabine]
protein binding in plasma ([2]; plasma): < 10%
fold higher brain tissue penetration in BLT mice compared to hu-HSC-RAG mice [3]: 5 fold
fold lower CSF concentration in NHPs than human concentrations ([10]; compared with ref Calcagno (2014)): approximately 3 fold

maraviroc [MVC]
fold higher IC90 against RT-SHIV than against clinical HIV-1 isolates (RT-SHIV [7]): 100 fold

Nc1nc(=O)n([C@@H]2CS[C@H](COP(=O)(O)OP(=O)(O)OP(=O)(O)O)O2)cc1F [FTC-tp, emtricitabine triphosphate]
FTC-tp in brain tissue (all three animal models): not detected; also recorded: not quantifiable

O=C1Nc2ccc(Cl)cc2[C@@](C#CC2CC2)(C(F)(F)F)O1 [EFV, efavirenz]
IC50 target (HIV): 2 ng/g
BCS class [8]: class I or class II
median brain tissue concentration, human post-mortem [1]: 900 ng/g
blood plasma protein binding ([2]; ref Boffito et al. 2003): 99.5%
total brain tissue concentration, median [range] ([10]; NHP, LC-MS/MS, four brain regions combined): 775 ng/g
